Laboratory results reported in PubChem BioAssay AID1919016 (Molecular Pharmacology Branch, DTP, NCI, 2023).
Values joined by “and” are separate entries in the source; they are usually repeats but may differ in a detail not shown here. Identical values can stand only once.

Tested on: NCI-H196 complex spheroid growth, percent test/control
Assay: Anticancer human tumor NCI-H196 cell line growth inhibition [AhR];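 further: seven days of drug exposure starting three days after plating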;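 on viability, T/C: 100% = DMSO vehicle control wells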
Conditions: for viability, T/C: stronger effect = lower value
How it was run: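 Complex tumor spheroids co-cultured with HUVEC and human MSC stroma; AhR antagonists tested in combination with standard-of-care and investigational agents. Top concentration at or near clinical Cmax (else 10 microM), half-log dilutions; growth expressed as percent test/control.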

[1] = curve of first compound, second compound 0.1 µM
[2] = curve of first compound, second compound 0.316 µM
[3] = curve of first compound, second compound 1 µM
[4] = curve of first compound, second compound 3.16 µM
[5] = curve of first compound, second compound 10 µM
[6] = second compound 0.1 µM, first compound 0.0316 µM
[7] = second compound 0.1 µM, first compound 0.1 µM
[8] = second compound 0.1 µM, first compound 0.316 µM
[9] = second compound 0.1 µM, first compound 1 µM
[10] = second compound 0.1 µM, first compound 3.16 µM
[11] = second compound 0.1 µM, first compound 10 µM
[12] = second compound 0.316 µM, first compound 0.0316 µM
[13] = second compound 0.316 µM, first compound 0.1 µM
[14] = second compound 0.316 µM, first compound 0.316 µM
[15] = second compound 0.316 µM, first compound 1 µM
[16] = second compound 0.316 µM, first compound 3.16 µM
[17] = second compound 0.316 µM, first compound 10 µM
[18] = second compound 1 µM, first compound 0.0316 µM
[19] = second compound 1 µM, first compound 0.1 µM
[20] = second compound 1 µM, first compound 0.316 µM
[21] = second compound 1 µM, first compound 1 µM
[22] = second compound 1 µM, first compound 3.16 µM
[23] = second compound 1 µM, first compound 10 µM
[24] = second compound 3.16 µM, first compound 0.0316 µM
[25] = second compound 3.16 µM, first compound 0.1 µM
[26] = second compound 3.16 µM, first compound 0.316 µM
[27] = second compound 3.16 µM, first compound 1 µM
[28] = second compound 3.16 µM, first compound 3.16 µM
[29] = second compound 3.16 µM, first compound 10 µM
[30] = second compound 10 µM, first compound 0.0316 µM
[31] = second compound 10 µM, first compound 0.1 µM
[32] = second compound 10 µM, first compound 0.316 µM
[33] = second compound 10 µM, first compound 1 µM
[34] = second compound 10 µM, first compound 3.16 µM
[35] = second compound 10 µM, first compound 10 µM

Row | Structure (SMILES) | IC50 [1] | IC50 [2] | IC50 [3] | IC50 [4] | IC50 [5] | viability, T/C [6] | viability, T/C [7] | viability, T/C [8] | viability, T/C [9] | viability, T/C [12] | viability, T/C [13] | viability, T/C [14] | viability, T/C [15] | viability, T/C [18] | viability, T/C [19] | viability, T/C [20] | viability, T/C [21] | viability, T/C [24] | viability, T/C [25] | viability, T/C [26] | other results
1 | COc1ccc([C@@H](O)c2cc(-c3ncnc4cc(N5CCOCC5)ccc34)c(F)cc2Cl)nn1 + Cc1ccccc1N=Nc1ccc(NC(=O)c2ccnn2C)c(C)c1 | > 10 µM | > 10 µM | > 10 µM | > 10 µM | > 10 µM | 97.4% | 92.5% | 96% | 81.8% | 95.3% | 102% | 90% | 78.3% | 85.7% | 88% | 88.6% | 89.3% | 97.3% | 96.8% | 86.8% | viability, T/C [10]: 72.8%; viability, T/C [11]: 65.4%; viability, T/C [16]: 68.9%; viability, T/C [17]: 68%; viability, T/C [22]: 72.6%; viability, T/C [23]: 66.6%; viability, T/C [27]: 77.1%; viability, T/C [28]: 74.6%; viability, T/C [29]: 65.1%; viability, T/C [30]: 88.1%; viability, T/C [31]: 83.8%; viability, T/C [32]: 79.4%; viability, T/C [33]: 73.1%; viability, T/C [34]: 76.5%; viability, T/C [35]: 60.3%
2 | O=C(c1cc(Cc2n[nH]c(=O)c3ccccc23)ccc1F)N1CCN(C(=O)C2CC2)CC1 + CC(CO)NC(=O)c1cc(-c2ccc(Cl)cc2)nn(-c2cnn(C)c2)c1=O | > 10 µM | > 10 µM | > 10 µM | > 10 µM | > 10 µM | 109% | 114% | 99.8% | 93.3% | 103% | 109% | 103% | 102% | 105% | 102% | 99.7% | 102% | 101% | 103% | 107% | viability, T/C [10]: 106%; viability, T/C [11]: 96.3%; viability, T/C [16]: 105%; viability, T/C [17]: 96.8%; viability, T/C [22]: 102%; viability, T/C [23]: 98.7%; viability, T/C [27]: 98.9%; viability, T/C [28]: 109%; viability, T/C [29]: 94.9%; viability, T/C [30]: 113%; viability, T/C [31]: 103%; viability, T/C [32]: 109%; viability, T/C [33]: 109%; viability, T/C [34]: 109%; viability, T/C [35]: 102%
3 | CC(C)CC(NC(=O)C(Cc1ccccc1)NC(=O)c1cnccn1)B(O)O (stereo unspecified) |  |  |  |  |  |  |  |  |  |  |  |  |  |  |  |  |  |  |  |  | viability, T/C (compound 0.000949 µM): 98.7% and 106% and 105%; viability, T/C (compound 0.003 µM): 96.1% and 99.1% and 101%; viability, T/C (compound 0.00949 µM): 36.6% and 76.3% and 35.7%; viability, T/C (compound 0.03 µM): 2.1% and 7.38% and 4.57%; viability, T/C (compound 0.0949 µM): 1.67% and 5.37% and 2.7%; viability, T/C (compound 0.3 µM): 2.25% and 4.21% and 2%; IC50 (curve of compound): 0.00732 µM and 0.0148 µM and 0.00737 µM
4 | COc1cc(Nc2ncc3c(n2)-c2ccc(Cl)cc2C(c2c(F)cccc2OC)=NC3)ccc1C(=O)O + Cc1ccccc1N=Nc1ccc(NC(=O)c2ccnn2C)c(C)c1 | > 10 µM | > 10 µM | > 10 µM | > 10 µM | > 10 µM | 83.2% | 94.4% | 108% | 107% | 83.3% | 89.3% | 106% | 118% | 85.5% | 88.9% | 95.9% | 94.2% | 85.4% | 86% | 102% | viability, T/C [10]: 123%; viability, T/C [11]: 116%; viability, T/C [16]: 119%; viability, T/C [17]: 115%; viability, T/C [22]: 111%; viability, T/C [23]: 104%; viability, T/C [27]: 97.5%; viability, T/C [28]: 109%; viability, T/C [29]: 117%; viability, T/C [30]: 89.8%; viability, T/C [31]: 88.4%; viability, T/C [32]: 96.3%; viability, T/C [33]: 91.1%; viability, T/C [34]: 108%; viability, T/C [35]: 104%
5 | CC(C)c1c(-c2ccccc2)nc2c(C#N)c[nH]n2c1=O + Cc1cncc(-c2nc(NCCc3c[nH]c4ccccc34)c3ncn(C(C)C)c3n2)c1 | > 10 µM | > 10 µM | > 10 µM | > 10 µM | > 10 µM | 107% | 110% | 105% | 100% | 103% | 120% | 113% | 109% | 120% | 112% | 115% | 103% | 116% | 117% | 119% | viability, T/C [10]: 117%; viability, T/C [11]: 106%; viability, T/C [16]: 113%; viability, T/C [17]: 107%; viability, T/C [22]: 112%; viability, T/C [23]: 101%; viability, T/C [27]: 102%; viability, T/C [28]: 115%; viability, T/C [29]: 112%; viability, T/C [30]: 75.9%; viability, T/C [31]: 86.7%; viability, T/C [32]: 89.5%; viability, T/C [33]: 86.9%; viability, T/C [34]: 80.7%; viability, T/C [35]: 80.7%
6 | Nc1ncn(C2CC(O)C(CO)O2)c(=O)n1 (stereo unspecified) + Cc1ccccc1N=Nc1ccc(NC(=O)c2ccnn2C)c(C)c1 | > 1 µM | > 1 µM | > 1 µM | > 1 µM | > 1 µM | 94.7% | 94.4% | 104% | 96.6% | 108% | 103% | 108% | 96.4% | 106% | 101% | 84.9% | 94.5% | 105% | 86.4% | 92.5% | viability, T/C (second compound 0.1 µM, first compound 0.00316 µM): 92.6%; viability, T/C (second compound 0.1 µM, first compound 0.01 µM): 105%; viability, T/C (second compound 0.316 µM, first compound 0.00316 µM): 104%; viability, T/C (second compound 0.316 µM, first compound 0.01 µM): 104%; viability, T/C (second compound 1 µM, first compound 0.00316 µM): 88.7%; viability, T/C (second compound 1 µM, first compound 0.01 µM): 104%; viability, T/C (second compound 3.16 µM, first compound 0.00316 µM): 97%; viability, T/C (second compound 3.16 µM, first compound 0.01 µM): 86.9%; viability, T/C [27]: 89.8%; viability, T/C (second compound 10 µM, first compound 0.00316 µM): 90%; viability, T/C (second compound 10 µM, first compound 0.01 µM): 97.3%; viability, T/C [30]: 87.6%; viability, T/C [31]: 86.7%; viability, T/C [32]: 78.7%; viability, T/C [33]: 83%
7 | Nc1ccccc1NC(=O)c1ccc(CNC(=O)OCc2cccnc2)cc1 |  |  |  |  |  |  |  |  |  |  |  |  |  |  |  |  |  |  |  |  | viability, T/C (compound 0.0316 µM): 84.5% and 90.6% and 85.8%; viability, T/C (compound 0.1 µM): 73.3% and 82.2% and 79.5%; viability, T/C (compound 0.316 µM): 59.8% and 65.2% and 60.3%; viability, T/C (compound 1 µM): 35.9% and 48.4% and 33.5%; viability, T/C (compound 3.16 µM): 15.2% and 17.5% and 16.5%; viability, T/C (compound 10 µM): 0.66% and 0.89% and 0.63%; IC50 (curve of compound): 0.492 µM and 0.773 µM and 0.509 µM
8 | CC1COCCN1c1cc(C2(S(C)(=N)=O)CC2)nc(-c2ccnc3[nH]ccc23)n1 (stereo unspecified) + Cc1ccccc1N=Nc1ccc(NC(=O)c2ccnn2C)c(C)c1 | > 10 µM | > 10 µM | > 10 µM | > 10 µM | > 10 µM | 98.5% | 101% | 98.8% | 101% | 99.3% | 102% | 99.2% | 92.5% | 96.3% | 104% | 101% | 94% | 96.2% | 99.1% | 97.4% | viability, T/C [10]: 81.5%; viability, T/C [11]: 69.7%; viability, T/C [16]: 80.5%; viability, T/C [17]: 72.6%; viability, T/C [22]: 87.7%; viability, T/C [23]: 70%; viability, T/C [27]: 88.6%; viability, T/C [28]: 81.8%; viability, T/C [29]: 74%; viability, T/C [30]: 85.7%; viability, T/C [31]: 93.1%; viability, T/C [32]: 101%; viability, T/C [33]: 89.7%; viability, T/C [34]: 78.3%; viability, T/C [35]: 76.6%
9 | CC(C)c1c(-c2ccccc2)nc2c(C#N)c[nH]n2c1=O |  |  |  |  |  |  |  |  |  |  |  |  |  |  |  |  |  |  |  |  | viability, T/C (compound 0.0316 µM): 97.3% and 97% and 111%; viability, T/C (compound 0.1 µM): 104% and 102% and 106%; viability, T/C (compound 0.316 µM): 109% and 92.1% and 112%; viability, T/C (compound 1 µM): 102% (2×) and 101%; viability, T/C (compound 3.16 µM): 101% and 102% and 110%; viability, T/C (compound 10 µM): 103% and 97.7% and 96.4%; IC50 (curve of compound): > 10 µM
